Measured values as given in patent US20140011769A1, “Methods of Treating Retroviral Infections and Related Dosage Regimes” (Chimerix, Inc., priority 2012, published 2014).
“Also recorded” adds a separate entry of the source. Where two headings read alike, the source gives them in different places.

Test system: HTLV-I
Experiment: Co-culture assay for HTLV-I, virus replication by p19 Gag ELISA
Format: cell-based
Conditions: for suppression of virus replication greater than 50% (p19 ELISA): 2 and 4 weeks co-culture; for concentration inhibiting HTLV-I virus replication from infected PBMCs: 3 weeks post-infection; for EC50: read-out: HTLV-I EC50; for antiviral activity: 2 weeks post infection, up to 25 μM; for concentration inhibiting HTLV-I replication as measured by p19 ELISA: 2 weeks
Description: PBMC Preparation: Fresh human peripheral blood mononuclear cells (PBMCs), obtained from Biological Specialty Corporation, Bristol, Pa., were confirmed as seronegative for HIV and HBV. Depending on the volume of the donor blood received, the leukophoresed blood cells were washed several times with PBS. After washing, the leukophoresed blood was diluted 1:1 with Dulbecco's phosphate buffered saline (PBS) and layered over 15 mL of Ficoll-Hypaque density gradient in a 50 mL conical centrifuge tube. These tubes were then centrifuged for 30 min at 600 g. Banded PBMCs were gently aspirated from the resulting interface and subsequently washed three times with PBS by low speed centrifugation. After the final wash, cells were enumerated by trypan blue dye exclusion and re-suspended at 1×10^6 cells/mL in RPMI 1640 with 15% Fetal Bovine Serum (FBS), 2 mmol/L L-glutamine, 2 μg/mL phytohemagglutinin (PHA-P), 100 Units/mL penicillin and 100 μg/mL streptomycin and allowed to incubate for 48-72 hr at 37° C.
After incubation, PBMCs were centrifuged and resuspended in PBMC medium (RPMI 1640 with 15% FBS, 2 mmol/L L-glutamine, 100 U/mL penicillin, 100 μg/mL streptomycin and 20 U/mL recombinant human IL-2). The cultures were then maintained for the remainder of the experiment by exchange of half the culture volume with fresh IL-2 containing tissue culture medium every 3 days. Assays were initiated with PBMCs that had been induced to proliferate for 72 hr. Stimulated PBMCs from two donors were pooled together to minimize the variability between individual donors and 8×10^6 cells were resuspended in 9 mL of fresh tissue culture medium per T25 flask.
HDP-TFV was evaluated at concentrations of 0.04, 0.2, 1 and 10 μM. AZT and tenofovir were evaluated at concentrations of 0.1, 1, 5 and 25 μM. HDP-TFV, AZT, or tenofovir were added to the PBMCs 10 hours prior to infection.
MT-2 Preparation: MT-2 cells were obtained from the NIH AIDS Research and Reference Reagent Program and passaged in T-75 flasks in RPMI 1640 medium, supplemented with 10% heat inactivated fetal bovine serum, 2 mmol/L L-glutamine, 100 U/ml penicillin and 100 μg/ml streptomycin. Total cell and viability quantification were performed using hemocytometer and trypan blue dye exclusion. The cells were incubated in 10 mL of 200 μg/mL mitomycin C for 1 hour at 37° C./5% CO2, washed 3 times in Dulbecco's phosphate buffered saline (DPBS), and resuspended in PBMC medium at 1.6×10^6 cells per mL. One mL of treated MT-2 cells was added to each T25 flask, except for the PBMC only control.
Co-Culture for HTLV-I Replication: Cell cultures were incubated at 37° C./5% CO2 for four weeks. Cell viability and density was monitored by trypan blue dye exclusion test. Cell density was readjusted to 8×10^5 cells per mL on days 3, 7, 10, 14, 21 and 28. Compound was added with the half-volume fresh medium exchange on days 3, 7, and 10. Supernatant was collected on days 14, 21 and 28 for measurement of HTLV-I virus replication by p19 Gag ELISA. Cell samples were also collected on days 14 and 28 for genomic DNA extraction and PCR analysis of HTLV-I proviral DNA. Untreated PBMCs co-cultured with MT-2 cells, PBMCs alone, and mitomycin C-treated MT-2 cells alone were cultured in parallel as controls.
HTLV-I p19 Gag ELISA: ELISA was performed to quantify p19 in cell-free supernatants according to the manufacturer's instructions (ZeptoMetrix, Buffalo, N.Y.). Briefly, 50 μL of the kit p19 standard was added to 950 μL assay diluent in microtiter tubes and serially diluted 1:2. After washing the microtiter plate with 1× plate wash buffer, 200 μL of the diluted standards were added in duplicate to the coated wells. In duplicate, 200 μL of media was added as negative controls. Cell culture supernatants were diluted 1:9 with media and mixed with 50 μL of lysis buffer in duplicate. Two hundred microliters of diluted sample was added to the coated wells and incubated at 37° C. for 2 hours. […]

[1] = Primate T-lymphotropic virus 1, MT2, 336 h, 2 wks post infection, human PBMCs co-cultured with mitomycin C treated MT-2 cells
[2] = Primate T-lymphotropic virus 1, MT2, 504 h, 3 wks post infection, human PBMCs co-cultured with mitomycin C treated MT-2 cells
[3] = Primate T-lymphotropic virus 1, MT2, 672 h, 4 wks post infection, human PBMCs co-cultured with mitomycin C treated MT-2 cells

Structure (SMILES)	suppression of virus replication greater than 50% (p19 ELISA)	concentration inhibiting HTLV-I virus replication from infected PBMCs	EC50 [1]	EC50 [2]	EC50 [3]	antiviral activity	concentration inhibiting HTLV-I replication as measured by p19 ELISA	other results
Nc1ccn(C[C@@H](CO)OCP(=O)(O)O)c(=O)n1 [Cidofovir, (S)-9-(3-hydroxy-2-phosphonylmethoxypropyl)cytosine]	did not suppress	100 µM	> 100 µM	87.8 µM	> 100 µM	–	–	suppression of virus replication greater than 50% (p19 ELISA) (listed as cidofovir): not reached
CCCCCCCCCCCCCCCCOCCCOP(=O)(O)CO[C@H](CO)Cn1ccc(N)nc1=O [HDP-CDV, hexadecyloxypropyl cidofovir]	did not suppress; also recorded: not reached	above 3 μM	> 10 µM	0.4 µM	> 10 µM	–	–	concentration showing moderate antiviral activity (four weeks of infected PBMC culture, inhibition may be attributed to observed toxicity): ≥ 0.2 µM
C[C@H](Cn1cnc2c(N)ncnc21)OCP(=O)(O)O [Tenofovir, (R)-9-(2-phosphonylmethoxypropyl)adenine]	–	–	–	–	–	no antiviral activity	–	EC50 (2 wks post infection, human PBMCs co-cultured with mitomycin C treated MT-2 cells): > 25 µM; EC50 (3 wks post infection, human PBMCs co-cultured with mitomycin C treated MT-2 cells): 10.3 µM; EC50 (4 wks post infection, human PBMCs co-cultured with mitomycin C treated MT-2 cells): 4.5 µM
CCCCCCCCCCCCCCCCOCCCOP(=O)(O)CO[C@H](C)Cn1cnc2c(N)ncnc21 [HDP-TFV, 3-(hexadecyloxy)propyl hydrogen ((R)-1-(6-amino-9H-purin 9-yl)propan-2-yloxy)methylphosphonate]	–	–	–	–	–	–	above 7 μM	EC50 (Primate T-lymphotropic virus 1, MT2, 336 h): 6.8 µM; EC50 (Primate T-lymphotropic virus 1, MT2, 504 h): 0.9 µM; EC50 (Primate T-lymphotropic virus 1, MT2, 672 h): 0.2 µM
Cc1cn([C@H]2C[C@H](N=[N+]=[N-])[C@@H](CO)O2)c(=O)[nH]c1=O [AZT, 3′-azido-2′,3′-dideoxythymidine]	–	–	> 25 µM	3.2 µM	2.6 µM	no antiviral activity	above 3 μM	–
